In doi:10.1101/2023.03.31.535182v2 (biorxiv, 2023):

Test system: MsGH13
Assay: UV/Vis release of 4-nitrophenolate at […] nm
Type: biochemical, Marinovum sp.
Conditions: 50 mM citric acid/phosphate, 150 mM NaCl, pH 6.5, 25 °C

Structure (SMILES): O=[N+]([O-])c1ccc(O[C@H]2O[C@H](CO)[C@@H](O)[C@H](O)[C@H]2O)cc1 [PNPGlc]
- Km: 950 ± 470 µM
